The subject of experiment [1] is A. fumigatus - LSPQ 204305. The experiment can be described thus: Disk diffusion assay, minimum effective concentration (MEC) and zone of inhibition (ZOI). In kind it is cell-based, Aspergillus fumigatus. A general note: In agar diffusion tests the substance spreads into inoculated agar from a disc or well.
In another experiment the test system is A. flavus - ATCC 204304. The experiment is described as above. It counts as cell-based, Aspergillus flavus.
The next experiment relates to C. albicans SC5314. Put plainly: Mouse model of disseminated candidiasis, survival. In kind it is in vivo. Conditions: CD-1 mice infected i.v. with C. albicans SC5314; 1 or 3 mg/kg i.p. once daily for 4 days. How it is done: Compound 2(a) was provided as a dry powder with an estimated purity of 95+%. Fungizone (amphotericin B desoxycholate, to be used as a comparitor), was also provided as a dry powder with an estimated purity of 95+%. The compound 2(a) and Fungizone were stored as dry powders at −80° C. until the day of administration.
Female mice (species Mus musculus, strain CD-1, Charles River) with body weight range of 22-24 g were used in the study. […] All animal experiments were performed at the Step-Justine Hospital (Montreal, Quebec) according to ethical guidelines of animal experimentation of the ethical committee of the hospital. During the study, dead or apparently sick animals were promptly removed and sick mice were euthanized upon removal from the cage.
The animals were maintained in rooms under controlled conditions of temperature (23±2° C.), humidity (45±5%), photoperiodicity (12 hrs light/12 hrs dark) and air exchange. The animals were housed in polycarbonate cages (4/single cage) equipped to provide food and water. Sterile wood shavings were used for animal bedding and the bedding was replaced every other day. […]
The treatment regimen was repeated once daily for a total of 4 days. […] Moribund animals were scored as non-survivors and euthanized by CO2 inhalation. […]

Experiment [2] concerns 60 different human tumor cell lines. Put plainly: NCI in vitro antiproliferative screen (SRB), GI50. In kind it is cell-based. How it is done: In vitro antipoliferative study of Compound 2a was performed by the National Cancer Institute (National Institutes of Health, Bethesda, Md., USA) against a panel of cancer cell lines in order to determine the concentrations needed to obtain a 50% inhibition of cell proliferation (IC50). The operation of this unique screen utilizes 60 different human tumor cell lines, representing leukemia, melanoma, and cancers of the lung, colon, brain, ovary, breast prostate and kidney. Compound 2(a) was provided as a lyophilized powder with an estimated purity of 90+%. The compound was stored at −20° C. until day of use.
The human tumor cell lines of the cancer-screening panel were grown in RPMI 1640 medium containing 5% fetal bovine serum and 2 mM L-glutamine. For a typical screening experiment, cells were inoculated into 96 well microtiter plates in 100 μl at plating densities ranging from 5000 to 40,000 cells/well depending on the doubling time of individual cell lines (Table 8). […]
Following drug addition, the plates were incubated for an additional 48 hours at 37° C., 5% CO2, 95% air, and 100% relative humidity. […] Bound stain was subsequently solubilized with 10 mM trizma base, and the absorbance was read on an automated plate reader at a wavelength of 515 nm. […]
The growth inhibitory power of compound 2(a) was measured by NCl utilizing the GI50 value, rather than the classical IC50 value. […]

A further experiment concerns Aspergillus species. Put plainly: Broth microdilution MIC determination, filamentous fungi. (In general: In broth dilution the organism is exposed to a series of concentrations in liquid medium.)
For a further experiment, the system named is Candida species. Put plainly: Broth microdilution MIC determination (NCCLS M27-A adapted), yeasts.

SMILES strings stand for the structures. ≈ marks a conversion by molar mass, not a printed value.

Description for Aspergillus species: (§1) Test compound preparation: The test article was prepared as 100× stock solutions in DMSO, with concentrations ranging from 3.2 mg/ml to 0.0625 mg/ml (a two-fold dilution series over 10 points). The first dilution (3.2 mg/ml) was prepared by resuspending 0.5 mg of each test article in 156.25 μl of DMSO.
(§2) Inoculum preparation: For fungal strains, the inoculum was prepared as follows. From an overnight culture in Yeast Media broth, cell density was adjusted in 0.85% saline to 0.5 McFarland. This procedure yielded a stock suspension of about 5×10^6 cells/ml. Following thorough vortexing, a working suspension was prepared by diluting the stock 1:50 in RPMI 1640, and then further diluting it 1:20 with RPMI 1640 to obtain the 2× test inoculum (about 5×10^3 cells/ml). For filamentous fungi, the inoculum was prepared as follows. From a spore suspension kept at 4° C., an appropriate dilution in 0.85% saline was made to obtain a final optical density 600 between 0.09-0.11. A working suspension was then prepared by diluting the spore suspension 50 times in RPMI to obtain the 2× test inoculum (about 1×10^5 CFU/ml).
(§3) MIC Determination: The 100× test article solutions were diluted 50 times in RPMI 1640, MH or BHI media and dispensed in a 96 well plate, one concentration per column, 10 columns in total. The 11th column contained RPMI 1640 with 1% DMSO with cells, the 12th column contained 100 μl of RPMI 1640 alone.
(§4) 50 μl of the final cell dilution (yeast, filamentous fungi or bacteria) of each indicator strain was added to each corresponding well of the microplate containing 50 μl of diluted drug or media alone. Assay plates were incubated at 35° C. for up to 72 hrs. MIC readings were determined at 24 and 48 hrs for the Candida and Aspergillus species, and at 48 and 72 hrs for Cryptococcus neoformans. MIC readout for each indicator was determined as the lowest concentration of test compound resulting in total absence of growth.
Description for Candida species: as §1, §2, §3, §4

As usually defined, the MIC is the least concentration at which growth counts as inhibited. As to `CC(C=CCCC=CC=CC=CC=CC(=O)NC1=C(O)CCC1=O)C(O)C(C)C(O)C=CC=CC=CC=CC=CCC(OC1OC(C)C(O)C(O)C1O)C(C)C(=O)CC(O)CC(O)CC(O)C=CCC(O)CC(O)CC(O)CC(O)C=CCC(O)CC(O)CCCN` (stereo not shown) [Compound 2(a), 56-Amino-15,17,33,35,37,41,43,45,47,51,53-undecahydroxy-14,16,30-trimethyl-31-oxo-29-(3,4,5-trihydroxy-6-methyl-tetrahydro-pyran-2-yloxy)-hexapentaconta-2,4,6,8,12,18,20,22,24,26,38,48-dodecaenoic acid (2-hydroxy-5-oxo-cyclopent-1-enyl)-amide], the “ZOI (zone of inhibition of fungal growth at the MEC)” value in experiment [1] (Aspergillus fumigatus, at MEC, 24 hours of incubation) is recorded as 2.7 mm; with A. flavus - ATCC 204304 (Aspergillus flavus, at MEC, 24 hours of incubation), 2.7 mm. In addition, in experiment [1] (ZOI after 24 hours at 35° C.), the “antifungal activity against Aspergillus fumigatus” value is “active”. The “antifungal activity against Aspergillus flavus” value in the experiment on A. flavus - ATCC 204304 (ZOI after 24 hours at 35° C.) is reported as “active”. Besides, the “increase of median survival time of infected mice” value in the experiment on C. albicans SC5314 worked out at 4 fold. Moreover, in experiment [2] (SN12C/renal carcinoma, HOP92/non-small cell lung carcinoma, HCC2998/colon carcinoma), the GI50 level result is given as “nanomolar or picomolar level”. Moreover, the “anticancer activity against human tumor cell lines” value in experiment [2] (all cell lines assayed in the NCI screening panel) was “effective against all the human tumor cell lines”. For the same compound, the MIC with Aspergillus species (24 h, Aspergillus flavus ATCC 204304, 24 hrs) is 4 µg/mL (≈ 3.08 µM); in the experiment with Aspergillus species (24 h, Aspergillus fumigatus ATCC 204305, 24 hrs), 16 µg/mL (≈ 12.3 µM); against Aspergillus species (48 h, Aspergillus flavus ATCC 204304, 48 hrs), 8 µg/mL (≈ 6.17 µM); against Aspergillus species (48 h, Aspergillus fumigatus ATCC 204305, 48 hrs) it was 16 µg/mL (≈ 12.3 µM); in the experiment with Candida species (24 h, Candida albicans ATCC 10231, 24 hrs) it was 4 µg/mL (≈ 3.08 µM); in the experiment with Candida species (24 h, Candida glabrata LSPQ 0250, 24 hrs), 4 µg/mL (≈ 3.08 µM). Besides, the MIC in the experiment with Candida species (24 h, Candida krusei LSPQ 0309, 24 hrs) came out at 8 µg/mL (≈ 6.17 µM); against Candida species (24 h, Candida lusitaniae ATCC 200953, 24 hrs) it was 4 µg/mL (≈ 3.08 µM); against Candida species (48 h, Candida albicans ATCC 10231, 48 hrs), 4 µg/mL (≈ 3.08 µM); with Candida species (48 h, Candida glabrata LSPQ 0250, 48 hrs), 8 µg/mL (≈ 6.17 µM); in the experiment on Candida species (48 h, Candida krusei LSPQ 0309, 48 hrs), 8 µg/mL (≈ 6.17 µM); with Candida species (48 h, Candida lusitaniae ATCC 200953, 48 hrs), 4 µg/mL (≈ 3.08 µM).

These data come from patent US7416868B2, “Polyene polyketides, processes for their production and their use as a pharmaceutical” (Thallion Pharmaceuticals, Inc., priority 2003, dated 2008).
